{
  "source": "patent US11040108B2",
  "about": "“Amino acid- and peptide-steroid conjugates and use thereof” (BRANDEIS UNIVERSITY, priority 2016, dated 2021)",
  "key": {"[1]": {"tested_on": "T98G glioblastoma cells", "assay": "MTT assay, cell viability of T98G", "type": "cell-based", "conditions": "Homo sapiens, read-out: IC50 against T98G", "method": "(§1) HeLa, Saos-2, HS-5, HepG2, T98G, and A2780 cells were purchased from American-type Culture Collection (ATCC, USA). A2780cis cell was purchased from Sigma. HeLa cells, HepG-2 cells, and T98G cells were cultured in MEM Medium supplemented with 10% v/v fetal bovine serum, 100 U/mL penicillin, and 100 μg/mL streptomycin. Saos-2 cells were cultured in McCoy's 5a Medium (for Saos-2) supplemented with 15% v/v fetal bovine serum, 100 U/mL penicillin, and 100 μg/mL streptomycin. HS-5 cells were cultured in Dulbecco's Modified Eagle's medium (DMEM) supplemented with 10% v fetal bovine serum (FBS), 100 U/mL penicillin, and 100 μg/mL streptomycin. A2780cis cells were cultured in RPMI 1640 Medium supplemented with 10% v/v fetal bovine serum, 100 U/mL penicillin, and 100 μg/mL streptomycin (cisplatin only necessary every 2-3 passages). All cells were maintained at 37° C. in a humidified atmosphere of 5% CO2.\nAn MTT assay was used to test the cytotoxicity. All different cell lines were seeded in 96-well plates at 1×10^5 cells/well for 24 hours followed by removal of the culture medium and subsequent addition of culture medium containing different concentrations of the precursors. […] The absorbance of each well at 595 nm was measured by a multimode microplate reader. […]"}, "[2]": {"tested_on": "HS-5 cell line (human bone marrow stroma cell line)", "assay": "MTT assay, cell viability of HS-5", "type": "cell-based", "conditions": "for IC50: Homo sapiens, HS5, read-out: IC50 against HS-5", "method": "as §1\n(§2) An MTT assay was used to test the cytotoxicity. All different cell lines were seeded in 96-well plates at 1×10^5 cells/well for 24 hours followed by removal of the culture medium and subsequent addition of culture medium containing different concentrations of the precursors. At designated time (24/48/72 hours), 10 μL MTT solution (5 mg/mL) was added to each well and incubated at 37° C. for another 4 hours, and then 100 μL of SDS-HCl solution was added to stop the reduction reaction and dissolve the purple formazan. The absorbance of each well at 595 nm was measured by a multimode microplate reader. The cytotoxicity assay was performed three times and the average value of the three measurements was taken.\nTo verify the selectivity of 1a against cancer cells, the HS-5 cell line (human bone marrow stroma cell line) was used; HS-5 hardly overexpresses ALP on cell surface. […] To further confirm that ALP on cell surface (i.e., as an ectophosphatase) contributed to the inhibitory activity of 1a, A2780cis were incubated with 1a and ALP (1 U/mL).\nAdditional cell viability assays were carried out using conjugates 1a and 1b, optionally with 3, against HepG2 human liver carcinoma cells, Saos-2 osteosarcoma cells, T98G glioblastoma cells, HS-5 (normal bone marrow stromal cells), A2780 ovarian cancer cells (parental line to A2780cis), and Kuramochi ovarian cancer cells. Conjugate 1a was particularly effective against ovarian and cervical cancer cells."}, "[3]": {"tested_on": "F-actin in A2780cis cells", "assay": "Actin staining (CLSM), A2780cis", "type": "cell-based, human", "conditions": "1a 12.5 μM, 12 hours", "method": "Cells in exponential growth phase were seeded in confocal dish (3.5 cm) at 1×10^5 to 2×10^5 cells per dish. After putting the dish in incubator for 24 hours, culture medium was removed, and fresh medium containing precursor (12.5 μM 1a for A2780cis, 25 μM 1a for HeLa) was added. After 12 hours, the medium was removed and PBS was used to wash the cells for three times. After fixing by 4% paraformaldehyde for 15 minutes, 1 mL of 0.1% Triton X-100 in PBS buffer was added for 30 minutes. After washing the cells three times by PBS, 1 mL of 0.1% BSA in PBS was added for 30 minutes, and then the cells were washed by PBS for three times. 1 mL of PBS containing 5 unit of Alexa 633 was added to the cells for 1 hour. After removing the buffer and washing the cells three times by PBS, 1 mL of Hoechst (1 μg/mL) was added for 10 minutes. Then, the cells were washed three times with PBS buffer before imaging. […]"}, "[4]": {"tested_on": "cell death receptors (CD95, DR3, DR5, TNFR1, TNFR2) on A2780cis cells", "assay": "Antibody staining of cell death receptors (CLSM)", "type": "cell-based, human", "conditions": "1a 12.5 μM, 12 or 24 hours", "method": "Procedure recommended by ABCAM for antibody staining was used. Cells were seeded (100,000-200,000 cell/3.5 cm confocal dish) and attachment was allowed (24 hours). Cells were incubated with 12.5 μM of precursor 1a for 12 hours or 24 hours. Then the cells were washed with PBS buffer three times and fixed by 4% formaldehyde for 15 minutes. Fixed cells were then washed with PBS buffer three times and incubated in 1.0% BSA/10% normal goat serum/0.3M glycine in 0.1% PBS-Tween for 1 hour to permeabilize the cells and block non-specific protein-protein interactions. Then they were washed with PBS buffer three times and incubated with the primary antibody (diluted 1/100, overnight at 4° C.). Then they were washed with PBS buffer three times and exposed to the secondary antibody (ab150077 Alexa Fluor® 488 goat anti-rabbit IgG (H+L), green) at 2 μg/ml (diluted 1/1000) for 1 hour. Hoechst 33342 was used to stain the cell nuclei (blue). The sample was washed with PBS buffer three times and mounted for imaging.\nAntibody staining was used to examine the extrinsic cell death signaling molecules induced by the assemblies of 1b. […]"}, "[5]": {"tested_on": "HeLa cells", "assay": "MTT assay, cytotoxicity against HeLa", "type": "cell-based, human", "method": "as §1, §2\nTo confirm that assemblies of the cholesterol conjugate are able to inhibit other cancer cell lines, 1a was incubated with HeLa cells, a widely studied malignant cervical cancer cell line."}},
  "note": "Where two headings read alike, the source gives them in different places.",
  "data": [
    {"compound": "CC(C)CCC[C@@H](C)C1CC[C@H]2[C@@H]3CC=C4CC(OC(=O)NC(Cc5ccc(OP(=O)(O)O)cc5)C(=O)O)CC[C@]4(C)[C@H]3CC[C@]12C", "note": "(stereo partly drawn) [1a, Cholesterol-(phospho)D-Tyr]", "values": [
      {"measurement": "IC50", "setting": "[1]; 48 hours", "result": 48, "unit": "µM"},
      {"measurement": "IC50", "setting": "[1]; 72 hours", "result": 37, "unit": "µM"},
      {"measurement": "cell viability / proliferation of HS-5", "setting": "[2]; 12.5 μM, 48 hours (FIG. 5A)", "result": "innocuous"},
      {"measurement": "IC50", "setting": "[2]; 48 hours", "result": 32, "unit": "µM"},
      {"measurement": "IC50", "setting": "[2]; 72 hours", "result": 21, "unit": "µM"},
      {"measurement": "F-actin filaments", "setting": "[3]", "result": "short, ill-defined actin filament"},
      {"measurement": "clustering of DR3 or TNF-R1", "setting": "[4]", "result": "rather moderate"},
      {"measurement": "clustering of DR5", "setting": "[4]", "result": "significant clustering"},
      {"measurement": "viability of HeLa cell treated by 1a with phosphatase or cell death signaling inhibitors", "setting": "[5]; 1a 12.5 μM + ALP, L-Phe, levamisole, zVAD-fmk, PJ34 or Nec-1, 48 hours", "result": "significantly increased the viability"},
      {"measurement": "IC50", "setting": "[5]; 48 hours, read-out: IC50 against HeLa cell", "result": 19, "unit": "µM"},
      {"measurement": "IC50", "setting": "[5]; Homo sapiens, HeLa, 48 h, read-out: IC50 against HeLa cell", "result": 18.6, "unit": "µM"},
      {"measurement": "IC50", "setting": "[5]; Homo sapiens, HeLa, 72 h, read-out: IC50 against HeLa", "result": 16, "unit": "µM"},
      {"measurement": "viability of HeLa cells", "setting": "[5]; treated by 1a, 24 hours", "result": "most HeLa cells were viable"}
    ]}
  ]
}
